Results from US5132216A, “Microbial transformation process for antihypertensive products” (Merck & Co., Inc., priority 1991, dated 1992).

Biological target: T1, Angiotensin II (A II) receptor (Oryctolagus cuniculus, UniProt P34976)
T1 sequence (P34976 1-359): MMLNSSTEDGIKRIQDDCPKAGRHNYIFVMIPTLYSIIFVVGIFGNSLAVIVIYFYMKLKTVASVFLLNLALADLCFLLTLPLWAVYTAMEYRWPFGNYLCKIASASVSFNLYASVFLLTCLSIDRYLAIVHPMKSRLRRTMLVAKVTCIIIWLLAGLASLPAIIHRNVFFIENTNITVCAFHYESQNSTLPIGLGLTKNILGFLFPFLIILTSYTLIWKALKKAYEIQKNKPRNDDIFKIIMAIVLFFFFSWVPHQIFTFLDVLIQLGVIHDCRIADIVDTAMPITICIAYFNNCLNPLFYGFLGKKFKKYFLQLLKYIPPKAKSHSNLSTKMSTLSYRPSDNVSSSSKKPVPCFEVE
Assay: Receptor binding assay using rabbit aortae membrane preparation (125I-Sar1Ile8-angiotensin II displacement, "IC50" assay)
Protocol: This assay is also referred to herein as the "IC50 " assay.
Receptor binding assay using rabbit aortae membrane preparation
Three frozen rabbit aortae (obtained from Pel-Freeze Biologicals) were suspended in 5 mM Tris-0.25M Sucrose, pH 7.4 buffer (50 ml) homogenized, and then centifuged. The mixture was filtered through a cheesecloth and the supernatant was centrifuged for 30 minutes at 20,000 rpm at 4° C. The pellet thus obtained was resuspended in 30 ml of 50 mM Tris-5 mM MgCl2 buffer containing 0.2% Bovine Serum Albumin and 0.2 mg/ml Bacitration and the suspension was used for 100 assay tubes. Samples tested for screening were done in duplicate. To the membrane preparation (0.25 ml) there was added ^125 I-Sar^1 Ile^8 -angiotensin II [obtained from New England Nuclear] (10 ul; 20,000 cpm) with or without the test sample and the mixture was incubated at 37° C. for 90 minutes. The mixture was then diluted with ice-cold 50 mM Tris-0.9% NaCl, pH 7.4 (4 ml) and filtered through a glass fiber filter (GF/B Whatman 2.4" diameter). The filter was soaked in scintillation cocktail (10 ml) and counted for radioactivity using Packard 2660 Tricarb liquid scintillation counter. […]

Q: For `Cc1cc(CO)nc2c1nc(C(C)O)n2Cc1ccc(-c2ccccc2-c2nnn[nH]2)cc1` (stereo not shown) [compound (IV)], which “A II antagonist activity by the IC50 assay” value is on record?
A: Its value is “exhibit A II antagonist activity”.
